The record followed here is paper doi:10.1101/2020.10.06.328336v1 (biorxiv, 2020).

In assay [1] the target is T1, SARS-CoV-2 RdRp complex (nsp12-nsp7-nsp8) (Severe acute respiratory syndrome coronavirus 2, UniProt P0DTD1). Kind of assay: biochemical.
The target of assay [2] is T1, SARS-CoV-2 RdRp complex (nsp12-nsp7-nsp8). Kind of assay: […]. The assay is classed as biochemical.

A word on the IC50: it is the concentration that inhibits the measured activity by half. Take `O=C(Nc1cc(C(=O)Nc2ccc(S(=O)(=O)O)cc2)cc(C(=O)Nc2ccc(S(=O)(=O)O)cc2)c1)Nc1cc(C(=O)Nc2ccc(S(=O)(=O)O)cc2)cc(C(=O)Nc2ccc(S(=O)(=O)O)cc2)c1` [NF110]: in assay [1], 580 ± 40 nM corresponded to half-maximal inhibition (IC50).
Take `Cc1ccc(C(=O)Nc2ccc(S(=O)(=O)O)c3cc(S(=O)(=O)O)cc(S(=O)(=O)O)c23)cc1NC(=O)c1cccc(NC(=O)Nc2cccc(C(=O)Nc3cc(C(=O)Nc4ccc(S(=O)(=O)O)c5cc(S(=O)(=O)O)cc(S(=O)(=O)O)c45)ccc3C)c2)c1` [suramin]: half-maximal inhibition in assay [2] (IC50) was put at 260 nM.
In assay [1], `O=C(Nc1ccc(C(=O)Nc2ccc(C(=O)Nc3ccc(S(=O)(=O)O)c4cc(S(=O)(=O)O)cc(S(=O)(=O)O)c34)cc2)cc1)Nc1ccc(C(=O)Nc2ccc(C(=O)Nc3ccc(S(=O)(=O)O)c4cc(S(=O)(=O)O)cc(S(=O)(=O)O)c34)cc2)cc1` [NF279] gave a 50% inhibitory concentration (IC50) of 50 nM.
In the case of `O=C(Nc1cc(C(=O)Nc2ccc(S(=O)(=O)O)cc2S(=O)(=O)O)cc(C(=O)Nc2ccc(S(=O)(=O)O)cc2S(=O)(=O)O)c1)Nc1cc(C(=O)Nc2ccc(S(=O)(=O)O)cc2S(=O)(=O)O)cc(C(=O)Nc2ccc(S(=O)(=O)O)cc2S(=O)(=O)O)c1` [NF449], inhibition in assay [1] was half-maximal at 50 nM (IC50).
Regarding `O=C(Nc1cccc(C(=O)Nc2cc(C(=O)Nc3ccc(S(=O)(=O)O)c4cc(S(=O)(=O)O)cc(S(=O)(=O)O)c34)ccc2F)c1)Nc1cccc(C(=O)Nc2cc(C(=O)Nc3ccc(S(=O)(=O)O)c4cc(S(=O)(=O)O)cc(S(=O)(=O)O)c34)ccc2F)c1` [NF157], the midpoint of inhibition in assay [1], the IC50, lay at 50 nM.
